From ChEMBL document CHEMBL1201862, “PubChem BioAssay data set” (2004)
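Following 48 hours of exposure in 96-well plates, responses at five concentrations were used to interpolate endpoints linearly. Abbreviation: GI50, concentration required for 50% inhibition of growth.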 Activity calls are given as the source filed them. Rule as the data show it: active = GI50 up to about 1.1 µM and inactive = higher.

Tests used:
Test in all cases: NCI tumour cell line growth inhibition, 48 h
[1] = test system: 786-0
[2] = test system: A498
[3] = test system: A549
[4] = test system: ACHN
[5] = test system: BT-549
[6] = test system: CAKI-1
[7] = test system: CCRF-CEM
[8] = test system: COLO 205
[9] = test system: DU-145
[10] = test system: EKVX
[11] = test system: HCC 2998
[12] = test system: HCT-116
[13] = test system: HCT-15
[14] = test system: HL-60
[15] = test system: HOP-62
[16] = test system: HOP-92
[17] = test system: HT-29
[18] = test system: Hs-578T
[19] = test system: IGROV-1
[20] = test system: K562
[21] = test system: KM12
[22] = test system: LOX IMVI
[23] = test system: M14
[24] = test system: MCF7
[25] = test system: MDA-MB-231
[26] = test system: MDA-MB-435
[27] = test system: MDA-N
[28] = test system: MOLT-4
[29] = test system: NCI-H226
[30] = test system: NCI-H23
[31] = test system: NCI-H460
[32] = test system: NCI-H522
[33] = test system: NCI/ADR-RES
[34] = test system: OVCAR-3
[35] = test system: OVCAR-4
[36] = test system: OVCAR-5
[37] = test system: OVCAR-8
[38] = test system: PC-3
[39] = test system: RPMI-8226
[40] = test system: RXF 393
[41] = test system: SF-268
[42] = test system: SF-295
[43] = test system: SF-539
[44] = test system: SK-MEL-28
[45] = test system: SK-MEL-2
[46] = test system: SK-MEL-5
[47] = test system: SK-OV-3
[48] = test system: SN12C
[49] = test system: SNB-19
[50] = test system: SNB-75
[51] = test system: SR
[52] = test system: SW-620
[53] = test system: T47D
[54] = test system: TK-10
[55] = test system: U-251
[56] = test system: UACC-257
[57] = test system: UACC-62
[58] = test system: UO-31

SMILES: CC(C)=CCC(O)C1=CC(=O)c2c(O)ccc(O)c2C1=O (stereo not given)
- GI50 [1]: 0.494 µM (active)
- GI50 [2]: 1.96 µM (inactive)
- GI50 [3]: 4.82 µM (inactive)
- GI50 [4]: 0.525 µM (active)
- GI50 [5]: 1.58 µM (inactive)
- GI50 [6]: 0.407 µM (active)
- GI50 [7]: 0.075 µM (active)
- GI50 [8]: 0.171 µM (active)
- GI50 [9]: 1.22 µM (inactive)
- GI50 [10]: 1.54 µM (inactive)
- GI50 [11]: 1.74 µM (inactive)
- GI50 [12]: 1.25 µM (inactive)
- GI50 [13]: 210 nM
- GI50 [14]: 34.9 nM (active)
- GI50 [15]: 1.82 µM (inactive)
- GI50 [16]: 0.641 µM (active)
- GI50 [17]: 1.97 µM (inactive)
- GI50 [18]: 2.9 µM (inactive)
- GI50 [19]: 1.64 µM (inactive)
- GI50 [20]: 0.191 µM (active)
- GI50 [21]: 4.7 µM (inactive)
- GI50 [22]: 1.22 µM (inactive)
- GI50 [23]: 1.16 µM (inactive)
- GI50 [24]: 0.557 µM (active)
- GI50 [25]: 1.55 µM (inactive)
- GI50 [26]: 1.31 µM (inactive)
- GI50 [27]: 0.805 µM (active)
- GI50 [28]: 0.063 µM (active)
- GI50 [29]: 1.01 µM (active)
- GI50 [30]: 1.13 µM (inactive)
- GI50 [31]: 1.88 µM (inactive)
- GI50 [32]: 0.258 µM (active)
- GI50 [33]: 2.05 µM (inactive)
- GI50 [34]: 1.14 µM (inactive)
- GI50 [35]: 1.76 µM (inactive)
- GI50 [36]: 1.97 µM (inactive)
- GI50 [37]: 1.55 µM (inactive)
- GI50 [38]: 2.23 µM (inactive)
- GI50 [39]: 0.23 µM (active)
- GI50 [40]: 0.745 µM (active)
- GI50 [41]: 2.27 µM (inactive)
- GI50 [42]: 2.78 µM (inactive)
- GI50 [43]: 1.61 µM (inactive)
- GI50 [44]: 1.48 µM (inactive)
- GI50 [45]: 1.95 µM (inactive)
- GI50 [46]: 0.301 µM (active)
- GI50 [47]: 11.7 µM (inactive)
- GI50 [48]: 0.664 µM (active)
- GI50 [49]: 2.36 µM (inactive)
- GI50 [50]: 5.04 µM (inactive)
- GI50 [51]: 0.15 µM (active)
- GI50 [52]: 0.933 µM (active)
- GI50 [53]: 0.39 µM (active)
- GI50 [54]: 1.53 µM (inactive)
- GI50 [55]: 2.1 µM (inactive)
- GI50 [56]: 1.5 µM (inactive)
- GI50 [57]: 1.58 µM (inactive)
- GI50 [58]: 1.38 µM (inactive)

SMILES: CC(=O)/C(=C/N1CCNC1=S)C(=O)Nc1ccccc1C
- GI50 [1]: > 100 µM (inactive)
- GI50 [2]: > 100 µM (inactive)
- GI50 [3]: > 100 µM (inactive)
- GI50 [4]: > 100 µM (inactive)
- GI50 [5]: > 100 µM (inactive)
- GI50 [6]: > 100 µM (inactive)
- GI50 [7]: > 100 µM (inactive)
- GI50 [8]: > 100 µM (inactive)
- GI50 [9]: > 100 µM (inactive)
- GI50 [10]: > 100 µM (inactive)
- GI50 [11]: > 100 µM (inactive)
- GI50 [12]: > 100 µM (inactive)
- GI50 [13]: > 100000 nM
- GI50 [15]: > 100 µM (inactive)
- GI50 [16]: > 100 µM (inactive)
- GI50 [17]: > 100 µM (inactive)
- GI50 [18]: > 100 µM (inactive)
- GI50 [19]: > 100 µM (inactive)
- GI50 [20]: > 100 µM (inactive)
- GI50 [21]: > 100 µM (inactive)
- GI50 [22]: > 100 µM (inactive)
- GI50 [23]: > 100 µM (inactive)
- GI50 [24]: > 100 µM (inactive)
- GI50 [25]: > 100 µM (inactive)
- GI50 [26]: > 100 µM (inactive)
- GI50 [27]: > 100 µM (inactive)
- GI50 [28]: > 100 µM (inactive)
- GI50 [29]: > 100 µM (inactive)
- GI50 [30]: > 100 µM (inactive)
- GI50 [31]: > 100 µM (inactive)
- GI50 [32]: > 100 µM (inactive)
- GI50 [33]: > 100 µM (inactive)
- GI50 [34]: > 100 µM (inactive)
- GI50 [35]: > 100 µM (inactive)
- GI50 [36]: > 100 µM (inactive)
- GI50 [37]: > 100 µM (inactive)
- GI50 [38]: > 100 µM (inactive)
- GI50 [39]: > 100 µM (inactive)
- GI50 [40]: > 100 µM (inactive)
- GI50 [41]: > 100 µM (inactive)
- GI50 [42]: > 100 µM (inactive)
- GI50 [43]: > 100 µM (inactive)
- GI50 [44]: > 100 µM (inactive)
- GI50 [45]: > 100 µM (inactive)
- GI50 [46]: > 100 µM (inactive)
- GI50 [47]: > 100 µM (inactive)
- GI50 [48]: > 100 µM (inactive)
- GI50 [49]: > 100 µM (inactive)
- GI50 [50]: > 100 µM (inactive)
- GI50 [51]: 83 µM (inactive)
- GI50 [52]: > 100 µM (inactive)
- GI50 [53]: > 100 µM (inactive)
- GI50 [54]: > 100 µM (inactive)
- GI50 [55]: > 100 µM (inactive)
- GI50 [56]: > 100 µM (inactive)
- GI50 [57]: > 100 µM (inactive)
- GI50 [58]: > 100 µM (inactive)
